Structure (SMILES) | melting point
CCOC(=O)c1nn(-c2ccc(Br)cc2)c(=O)c(C#N)c1C | 174 to 176 °C
CCCCCCCCCCCCCCCCc1ccccc1O | 54 to 55 °C
O=C(CCN1CCN(c2ccc3ccccc3n2)CC1)c1csc2ccccc12 | 92 to 96 °C
Fc1ccc(-c2cncc(CN3CCN(c4ncccn4)CC3)c2)cc1 | 97 to 98 °C
N#Cc1nn(-c2c(Cl)cc(C(F)(F)F)cc2Cl)c([N+](=O)[O-])c1OC(F)F | 72.5 to 74 °C
COc1cc(C=O)c2c(c1OC)OCC=C2 | 82 to 82.5 °C
CC(C)(C)OC(=O)N1CCN(c2ccc(NC(=O)Nc3nc(C(C)(C)C)cs3)cc2)CC1 | 123 to 124 °C
CSc1nc(=O)cc(N)n1-c1ccc(C)cc1 | 130 to 132 °C
CC(=O)NC[C@H]1CN(c2ccc3c(c2)CCOC3)C(=O)O1 | 142 to 145 °C
Cc1cc(C2CN(C(=O)Nc3ccc(OC(F)(F)F)cc3)N=C2c2ccccc2)on1 (configuration not stated) | 195 to 197 °C
CCOc1ccccc1C1(O)C(=O)Nc2cc(C)c(Cl)cc21 (configuration not stated) | 253 °C
OCCCCOc1ccc2cc(O)ccc2c1 | 148 to 150 °C
Cc1cccc(C)c1Oc1ccc2ccc(N)nc2n1 | 218 °C
CCCNCCc1ccc(NS(=O)(=O)c2ccc(Cl)cc2)cc1 | 137 to 140 °C
O=C(Nc1ccc(Oc2ccnc(NCCN3CCCC3)n2)c2ccccc12)c1cc(F)cc(N2CCCCC2)c1 | 92 to 94 °C
CS(=O)(=O)c1ccc(-c2cnn(Cc3ccc4cc(F)ccc4n3)c(=O)c2-c2ccc(F)cc2)cc1 | 116 to 119 °C
O=c1[nH]ncc2c(OCC3CO3)cccc12 (configuration not stated) | 173 to 174 °C
O=C(c1ccc(Cl)cc1)C(Oc1cccc(Cl)n1)n1cncn1 (configuration not stated) | 162 °C
CCOC(=O)/C=C/c1ccc(OCCC(C)(C)O)cc1Oc1ncc(C(F)(F)F)cc1Cl | 63.5 to 66 °C
C[C@H](COc1ccc(C=C2SC(=S)N(CC(=O)O)C2=O)cc1OCc1ccccc1)c1ccccc1 | 148 °C
CN(CC#Cc1ccccc1)[C@H]1CC[C@H](c2ccc3[nH]c(=O)oc3c2)CC1 | 249 to 252 °C
N#Cc1ccc(CN2CCC(N3C(=O)Nc4ccccc4C3c3ccccc3)CC2)cc1 (configuration not stated) | 189 to 192 °C
COc1ccc(C=N[C@H]2C(O)O[C@H](CO)[C@@H](O)[C@@H]2O)cc1 (some centres not stated) | 165 °C
OCc1ccc(OCc2ccccc2)c2ncccc12 | 192 to 194 °C

Structure (SMILES) | melting point
Cn1cc(C(=O)NCc2ccc(Cl)cc2)c(=O)c2cc(CN3CCC[C@@H]3[C@@H](O)c3ccccc3)sc21 (relative stereo) | 158 to 162 °C
Oc1ccc2c(c1)ncn2-c1ccc2cccc(Cl)c2n1 | > 250 °C
CC1=C(C(=O)OC(C)C)C(c2cccc([N+](=O)[O-])c2)n2c(cc(=O)n2Cc2ccccc2)N1 (configuration not stated) | 184 to 185 °C
CC(C)c1nc(C(C)C)c(CO)c(-c2ccc(F)cc2)c1/C=C/c1ccccc1 | 107 to 110 °C
COc1ccc2cc3c(N)nn(CN(C)C)c3nc2c1 | 156 to 158 °C
NCCc1ncccc1C(N)=O | 54 °C
COc1cc(Cn2c(-c3ccc(O)cc3)c(C)c3cc(O)ccc32)ccc1OCCN1CCCCCC1 | 142 to 146 °C
COc1ccc(C=C2C(=O)C3(C)CCC2C3(C)C)cc1OC (configuration not stated) | 107 °C
CN(C)CCC=C1c2ccccc2CCc2ccc(S(C)(=O)=O)cc21 | 109 to 110 °C
ON=CCc1cccs1 | 92 °C
COc1ccccc1-n1cc(-c2ccccc2)c(OCC(=O)O)n1 | 170 to 174 °C
Cc1cc(C(C)N(O)C(N)=O)c(C)s1 (configuration not stated) | 146 to 147 °C
CSc1nc2ccc(C)cc2c(=O)s1 | 114 °C
OC(C(=Cn1cncn1)c1ccc(Cl)cc1)c1ccccc1C(F)(F)F (configuration not stated) | 161 °C
CCCOc1ccc2c(O)c([N+](=O)[O-])c(=O)oc2c1 | 151 to 152 °C
Cc1ccc2[nH]c3c(cc(-c4ccccc4Nc4ccccc4)c(=O)n3C)c2c1 | 188 to 190 °C
Cc1cc(Cl)cc(C(=O)c2ccc(S(C)(=O)=O)cc2Cl)c1O | 175 to 180 °C
Cc1cccc(NC(=O)N(C)C)c1 | 124 to 127 °C
CC(=O)N(CCCCC(=O)O)C(c1ccccc1)c1ccccc1 | 135 to 136 °C
CCOC(=O)c1cn(-c2cnsn2)c2c(F)c(F)c(F)cc2c1=O | 167 to 169 °C
O=C1Nc2c(F)cc(F)cc2C1c1ncnc2nn(C3CCCC3)cc12 (configuration not stated) | 296 to 297 °C
O=C(c1ccccc1Cl)c1ccccc1[N+](=O)[O-] | 76 to 79 °C
COC(=O)C1=NC2=COc3c(OC)cccc3N2C1C(=O)O (configuration not stated) | 167 to 168 °C
NC(=O)c1cn2c(nc1=O)CCCCC2 | 219 °C

Structure (SMILES) | melting point
Cc1noc(C)c1-c1cccc2c1C1(COc3cc4c(cc31)OCCO4)C(=O)N2C (configuration not stated) | 228 to 230 °C
CC1CCC2(c3c[nH]cn3)Cc3ccccc3C12 (configuration not stated) | 168 to 172 °C
Cc1ccc(-c2nc(C)c(-c3ccnc(Nc4ccc(N5CCOCC5)cc4)n3)s2)cn1 | 244 to 245 °C
CNC(=O)Cc1c(C(=O)c2cc(C)ccn2)[nH]c2cc(Cl)ccc12 | 231 °C
CCSC(=O)Cc1csc(N)n1 | 76 to 77 °C
CCCCc1nnc(-c2ccc(OC)cc2)n1-c1ccc(OC)cc1 | 94 °C
O=S(=O)(CCO)CCC(c1cc(F)ccc1F)S(=O)(=O)c1ccc(Cl)cc1 (configuration not stated) | 111 to 113 °C
COc1ccc(N2CN(c3ccccc3)C(N)=C3C=NN=C32)cc1 | 204 to 206 °C
Cc1cc(Oc2ccc(NC(=O)N3CCc4ccccc4CC3)cn2)cc(C)c1Cl | 208 to 209 °C
CC1(C)OCCc2c1[nH]c1ccccc21 | 142 to 144 °C
CC(C)(C)OC(=O)NCCOCCOCCNC(=O)CCCCC1SCC2NC(=O)NC21 (configuration not stated) | 106 to 108 °C
CCOC(=O)COC(=O)c1c(Cl)cccc1Cl | 50 to 51 °C
O=C(c1cc2c3ccccc3n(Cc3ccccc3)c2s1)N1CCOCC1 | 199 to 201 °C
CCOC(=O)C(Cc1ccc(OCCN2CCC(C)(C)c3cc(C(=NOC)c4ccccc4)ccc32)cc1)Oc1ccc(C(F)(F)F)cc1 (configuration not stated) | 44 to 46 °C
OC1CCn2c(CCc3ccccc3)nc3cccc1c32 (configuration not stated) | 125 to 126 °C
CC(C)S(=O)(=O)c1cc(C#N)c(N)c(OCCc2ccccn2)c1 | 122 to 123 °C
CC(=O)OCC1OC(n2c(Br)nc3cc(Cl)c(Cl)cc32)C(OC(C)=O)C1OC(C)=O (configuration not stated) | < 65 °C
Cc1cn(C(C)C(=O)N(C)C)nc1-c1cccs1 (configuration not stated) | 100 to 102 °C
CS(=O)(=O)c1ccc(-c2cnn(-c3cccc(Cl)c3)c(=O)c2Oc2cccc(F)c2)cc1 | 178 to 180 °C
CCCCC(=O)Nc1ccc(Br)c(-n2nc(CC)n(Cc3ccc(-c4ccccc4S(N)(=O)=O)cc3F)c2=O)c1 | 223 to 225 °C
CCN1c2ncc(CCc3ccc(N(C)S(C)(=O)=O)cc3)cc2C(=O)N(C)c2ccc(Cl)nc21 | 196 to 198 °C
CN1C(=O)CC[C@]2(C)c3ccc(-c4ccc(Cl)cc4Cl)cc3CC[C@@H]12 | 45 to 48 °C
OCC1=CC=C(CO)SS1 | 64 to 66 °C
O=C(O)COc1cccc(CN2C(=O)C3(COc4cc5c(cc43)CCO5)c3ccccc32)c1 (configuration not stated) | 95 to 96 °C
